Experimental data as given in patent US6417362B1, “Nitrogenous heterocyclic compounds and hyperlipemia remedy containing the same” (Meiji Seika Kaisha, Ltd., priority 1997, dated 2002).

Legend:
wistar rats (male) = test: Acute toxicity test in rats; format: in vivo; details: orally administered 200 mg/kg, observed for 8 days
Experimental: (§1) An acute toxicity test was carried out using mice and rats by a conventional method.

ddY mice (male) = test: Acute toxicity test in mice; format: in vivo; details: orally administered 200 mg/kg, observed for 8 days
Experimental: as §1

[1] = system: secretion of apolipoprotein B in cell strain HepG2 derived from hepatoma; test: Inhibitory activity against secretion of apolipoprotein B (sandwich ELISA); format: cell-based; details: Homo sapiens; HepG2 cells, test compound at final concentration of 3 μM
Experimental: Inhibitory activity against secretion of apolipoprotein B
The inhibitory activity of the compounds according to the present invention against the secretion of apolipoprotein B was studied using cell strain HepG2 derived from hepatoma.
The test was carried out by the method of Nagata et al. (Biochem. Pharmacol., 40, 843 (1990)) and the method of Furukawa et al. (J. Biol. Chem., 267, 22630 (1992)) which had been partly modified. Specifically, HepG2 cells were cultivated in a Dulbecco's modified Eagle's medium (DMEM), containing 10% fetal calf serum (FCS), 100 units/ml penicillin, and 100 μg/ml streptomycin, placed in 96-well plates. Thereafter, the medium was replaced with DMEM containing 1% bovine serum albumin, and the test compound was simultaneously added to a final concentration of 3 μM or not added, followed by cultivation. Three hr after the replacement of the medium, acetic acid was added to a final concentration of 1 mM, followed by cultivation for additional 4 hr. The amount of apolipoprotein B secreted in the supernatant of the culture thus obtained was quantitatively determined by the sandwich ELISA method. In this case, goat anti-human apolipoprotein B polyclonal antibody (CHEMICON) was used as a primary antibody, and mouse anti-human apolipoprotein B monoclonal antibody peroxidase conjugate (BIOSYS) was used as a secondary antibody.
The inhibition (%) against the secretion of apolipoprotein B was calculated by the following equation:
Inhibition (%) of secretion of apolipoprotein B={1-(amount of apolipoprotein B secreted in the presence of drug)/(amount of apolipoprotein B secreted in the absence of drug)}×100

[2] = system: biosynthesis of triglycerides in cell strain HepG2 derived from human hepatoma; test: Inhibitory activity against biosynthesis of triglycerides (14C-acetic acid incorporation); format: cell-based; details: HepG2 cells, test compound at final concentration of 3 μM
Experimental: Inhibitory activity against biosynthesis of triglycerides The inhibitory activity of the compounds according to the present invention against the biosynthesis of triglycerides were studied using cell strain HepG2 derived from human hepatoma.
The test was carried out by the method of Nagata et al. (Biochem. Pharmacol., 40, 843 (1990)) and the method of Furukawa et al. (J. Biol. Chem., 267, 22630 (1992)) which had been partly modified. Specifically, HepG2 cells were cultivated in a Dulbecco's modified Eagle's medium (DMEM), containing 10% fetal calf serum (FCS), 100 units/ml penicillin, and 100 μg/ml streptomycin, placed in 96-well plates. Thereafter, the medium was replaced with DMEM containing 1% bovine serum albumin, and the test compound was simultaneously added to a final concentration of 3 μM or was not added, followed by cultivation. Three hr after the replacement of the medium, ^14C-acetic acid was added to a final concentration of 1 mM, followed by cultivation for additional 4 hr. The cells were washed with a phosphate buffer (pH 7.5) containing 150 mM sodium chloride. Thereafter, lipid within the cells was extracted with n-butanol. After the extraction, the extract was evaporated to dryness under a nitrogen gas stream. The residue was dissolved in a small amount of chloroform. The solution was developed in thin-layer chromatography (developing solvent petroleum ether:diethyl ether:acetic acid=90:15:3), and a ^14C-triglyceride fraction was isolated. The amount of […] produced was then quantitatively determined with a liquid scintillation counter (Beckman, LS-6500).
The inhibition (%) of the biosynthesis of triglycerides was calculated by the following equation:
Inhibition (%) of biosynthesis of triglycerides={1-(amount of ^14C-triglycerides produced in the presence of drug)/(amount of ^14C-triglycerides produced in the absence of drug)}×100.

Structure (SMILES)	change in general states, such as reduction in body weight (wistar rats (male))	survival in acute toxicity test (wistar rats (male))	change in general states, such as reduction in body weight (ddY mice (male))	survival in acute toxicity test (ddY mice (male))	inhibition at 3 µM [1] [%]	inhibition at 3 µM [2] [%]
O=C1c2cc(N3CCN(CCC(c4ccccc4)c4ccccc4)CC3)ccc2CN1C1CCCCC1 [Example 8, 2-Cyclohexyl-2,3-dihydro-6-[4-(3,3-diphenyl-1-propyl)piperazin-1-yl]-1H-isoindol-1-one]	any change in general states, such as a reduction in body weight, did not occur	survived	any change in general states, such as a reduction in body weight, did not occur	survived	70	79
CC(C)=CCC/C(C)=C/CC/C(C)=C/CN1CCN(c2ccc3c(c2)C(=O)N(C2CCCCC2)C3)CC1 [Example 5, 2-Cyclohexyl-2,3-dihydro-6-[4-(trans,trans-farnesyl)piperazin-1-yl]-1H-isoindol-1-one]					56	90
CC(C)(C)OC(=O)N1CCN(c2ccc3c(c2)C(=O)N(C2CCCCC2)C3)CC1 [Example 30, 6-[4-(t-Butoxycarbonyl)piperazin-1-yl]-2-cyclo-hexyl-2,3-dihydro-1H-isoindol-1-one]					68	89
O=C1c2cc(N3CCN(CCC(c4ccccc4)c4ccccc4)CC3)ccc2CCN1C1CCCCC1 [Example 68, 2-Cyclohexyl-7-[4-(3,3-diphenyl-1-propyl)-piperazin-1-yl]-3,4-dihydro-2H-isoquinolin-1-one]					61	64
